Like-named read-outs stand apart in the source and are kept apart here.
Tests used:
HCV 1a = HCV 1a replicon assay; format: cell-based; details: Hepatitis C virus; class symbol; cell marked (HCV genotype 1a replicon); read-out: Inhibition of HCV genotype 1a replicon
Description: (§1) Compounds of the invention can inhibit multiple genotypes of HCV selected but not limited to 1a, 1h, 2a, 3a, and 4a. The EC50s are measured in the corresponding replicon assays that are similar to HCV 1b replicon assay as described above.
(§2) The biological activity against HCV 1b, 1a, or 2a is indicated as being *, **, ***, or ****, which corresponds to EC50 ranges of EC50>1000 nM, 100 nM<EC50≦1000 nM, 10 nM<EC50≦100 nM, or EC50≦10 nM, respectively. The biological activity against HCV NS5B C316Y or S365A mutant is indicated as being […], which corresponds to EC50 ranges of EC50>1000 nM, 200 nM<EC50≦1000 nM, […], respectively.

[1] = test system: 1b_Huh-Luc/Neo-ET cell line (bicistronic genotype 1b replicon in Huh 7 cells); assay: HCV 1b replicon assay, luciferase readout; format: cell-based, HCV genotype 1b; details: Hepatitis C virus
Method in brief: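 Huh 7 cells persistently carrying a bicistronic genotype 1b luciferase replicon, treated with compound in triplicate the day after plating and incubated 72 h. Luciferase activity measured by Bright-Glo and expressed as percent of untreated control; EC50 from four-parameter fit, repeated several times.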

HCV 2a = HCV 2a replicon assay; format: cell-based; details: Hepatitis C virus; class symbol; cell marked (HCV genotype 2a replicon); read-out: Inhibition of HCV genotype 2a replicon
Description: as §1, §2

[2] = Huh-7, 1b_Huh-Luc/Neo-ET cell line, read-out: EC50, half-maximal inhibition of HCV 1b replication
[3] = Huh-7, class symbol, HCV genotype 1b replicon, read-out: Inhibition of HCV genotype 1b replicon

Row | Structure (SMILES) | EC50 (HCV 1a) [nM] | EC50 [1, 2] [nM] | EC50 (HCV 2a) [nM] | EC50 [1, 3] [nM]
1 | CNC(=O)c1c(-c2ccc(F)cc2)oc2cc3c(cc12)[C@@H](C)N1CCC[C@H]1CN3S(C)(=O)=O (single isomer, unassigned) [Compound B122] | > 1000 |  |  | 
2 | CNC(=O)c1c(-c2ccc(Oc3ccc(F)cc3)cc2)oc2cc3c(cc12)[C@H]1C[C@H]1CCN3S(C)(=O)=O (single isomer, unassigned) [Compound B143] | 100 to 1000 |  |  | 
3 | CNC(=O)c1c(-c2ccc(Oc3ccc(F)cc3)cc2)oc2cc3c(cc12)[C@@H]1C[C@@H]1CCN3S(C)(=O)=O (single isomer, unassigned) [Compound B146] | 10 to 100 | 10 to 100 |  | 
4 | CNC(=O)c1c(-c2ccc(F)cc2)oc2cc3c(cc12)C(C)CCN3S(C)(=O)=O (stereo not shown) [Compound B10] |  |  | 100 to 1000 | 
5 | CNC(=O)c1c(-c2ccc(F)cc2)oc2cc3c(cc12)C(C)=CCN3S(C)(=O)=O [Compound B11] |  |  | > 1000 | 
6 | C=C1CCCN(S(C)(=O)=O)c2cc3oc(-c4ccc(F)cc4)c(C(=O)NC)c3cc21 [Compound B61] |  |  | > 1000 | 
7 | CNC(=O)c1c(-c2ccc(F)cc2)oc2cc3c(cc12)C(C)=CCCN3S(C)(=O)=O [Compound B62] |  |  | > 1000 | 
8 | CS(=O)(=O)N1CCCCc2cc3c(C(=O)NC#N)c(-c4ccc(F)cc4)oc3cc21 [Compound B64] |  |  | > 1000 | 
9 | CS(=O)(=O)N1CCCCc2cc3c(-c4nnn[nH]4)c(-c4ccc(F)cc4)oc3cc21 [Compound B65] |  |  | > 1000 | 
10 | CS(=O)(=O)N1CCCCc2cc3c(C4=NCCN4)c(-c4ccc(F)cc4)oc3cc21 [Compound B66] |  |  | > 1000 | 
11 | C=C1CCCN(S(C)(=O)=O)c2cn3nc(-c4ccc(F)cc4)c(C(=O)NC)c3cc21 [Compound B68] |  |  | > 1000 | 
12 | CNC(=O)c1c(-c2ccc(F)cc2)nn2cc3c(cc12)C(=O)CCCN3S(C)(=O)=O [Compound B69] |  |  | > 1000 | 
13 | CNC(=O)c1c(-c2ccc(F)cc2)nn2cc3c(cc12)OCCCN3S(C)(=O)=O [Compound B70] |  |  | > 1000 | 
14 | CNC(=O)c1c(-c2ccc(F)cc2)nn2cc3c(cc12)C(C)=CCCN3S(C)(=O)=O [Compound B72] |  |  | > 1000 | 
15 | CNC(=O)c1c(-c2ccc(F)cc2)nn2cc3c(cc12)C(O)CCCN3S(C)(=O)=O (stereo not shown) [Compound B73] |  |  | > 1000 | 
16 | CNC(=O)c1c(-c2ccc(F)cc2)nn2cc3c(cc12)C=CCCN3S(C)(=O)=O [Compound B74] |  |  | > 1000 | 
17 | CNC(=O)c1c(-c2ccc(F)cc2)oc2cc3c(cc12)CCCCN3C(C)=O [Compound B80] | > 1000 |  |  | 
18 | CNC(=O)c1c(-c2ccc(F)cc2)oc2cc3c(cc12)/C(C)=C\CCCN3S(C)(=O)=O [Compound B81] | 100 to 1000 |  |  | 
19 | CNC(=O)c1c(-c2ccc(F)cc2)oc2cc3c(cc12)C(=O)CCCCN3S(C)(=O)=O [Compound B82] | 100 to 1000 |  |  | 
20 | CNC(=O)c1c(-c2ccc(F)cc2)oc2cc3c(cc12)CCCCN3S(N)(=O)=O [Compound B102] | 100 to 1000 |  |  | 
21 | CNC(=O)c1c(-c2ccc(F)cc2)oc2cc3c(cc12)CCCCN3S(=O)(=O)N(C)C [Compound B103] | 100 to 1000 |  |  | 
22 | CNC(=O)c1c(-c2ccc(F)cc2)oc2cc3c(cc12)C1(CCCCN3S(C)(=O)=O)CC1 [Compound B104] | 100 to 1000 |  |  | 
23 | CNC(=O)c1c(-c2ccccc2)nn2cc3c(cc12)C(C)CCCN3S(C)(=O)=O (stereo not shown) [Compound B105] | 100 to 1000 |  |  | 
24 | CNC(=O)c1c(-c2ccc(F)cc2)oc2cc3c(cc12)C(=O)N(C)CCN3S(C)(=O)=O [Compound B106] | 10 to 100 | 10 to 100 |  | 
25 | CNC(=O)c1c(-c2ccc(F)cc2)oc2cc3c(cc12)C(C)N(CC1CC1)CCN3S(C)(=O)=O (stereo not shown) [Compound B108] | 10 to 100 | 10 to 100 |  | 
26 | CNC(=O)c1c(-c2ccc(F)cc2)oc2cc3c(cc12)C(C)N(C(=O)OC)CCN3S(C)(=O)=O (stereo not shown) [Compound B109] | 10 to 100 | 10 to 100 |  | 
27 | CNC(=O)c1c(-c2ccc(F)cc2)oc2cc3c(cc12)C(C)N(C(C)=O)CCN3S(C)(=O)=O (stereo not shown) [Compound B110] | 100 to 1000 |  |  | 
28 | CNC(=O)c1c(-c2ccc(F)cc2)oc2cc3c(cc12)C(C)N(C(=O)OCc1ccccc1)CCN3S(C)(=O)=O (stereo not shown) [Compound B111] | 10 to 100 | 10 to 100 |  | 

Row | Structure (SMILES) | EC50 (HCV 1a) [nM] | EC50 [1, 2] [nM] | EC50 (HCV 2a) [nM] | EC50 [1, 3] [nM]
29 | [2H]C([2H])([2H])NC(=O)c1c(-c2ccc(F)cc2)oc2cc3c(cc12)CCCCN3S(C)(=O)=O [Compound B112] | 10 to 100 | 10 to 100 |  | 
30 | [2H]C([2H])([2H])NC(=O)c1c(-c2ccc(F)cc2)oc2cc3c(cc12)CCCCCN3S(C)(=O)=O [Compound B113] | 10 to 100 | 10 to 100 |  | 
31 | CNC(=O)c1c(-c2ccc(F)cc2)oc2cc3c(cc12)C(C)C(C)(C)CCN3S(C)(=O)=O (stereo not shown) [Compound B115] | 10 to 100 | 10 to 100 |  | 
32 | CNC(=O)c1c(-c2ccc(Oc3ccc(F)cc3)cc2)oc2cc3c(cc12)C(C)OCCN3S(C)(=O)=O (stereo not shown) [Compound B116] | 10 to 100 | 10 to 100 |  | 
33 | CNC(=O)c1c(-c2ccc(Oc3ccc(F)cc3)cc2)oc2cc3c(cc12)[C@@H](C)OCCN3S(C)(=O)=O [Compound B117] | 100 to 1000 |  |  | 
34 | [2H]C([2H])([2H])NC(=O)c1c(-c2ccc(Oc3ccc(F)cc3)cc2)oc2cc3c(cc12)C(C)OCCN3S(C)(=O)=O (stereo not shown) [Compound B119] | 10 to 100 | 10 to 100 |  | 
35 | [2H]C([2H])([2H])NC(=O)c1c(-c2ccc(F)cc2)oc2cc3c(cc12)C(C)CCCN3S(C)(=O)=O (stereo not shown) [Compound B121] | < 10 | ≤ 10 |  | 
36 | CCCN1CCN(S(C)(=O)=O)c2cc3oc(-c4ccc(F)cc4)c(C(=O)NC)c3cc2C1C (stereo not shown) [Compound B137] | 10 to 100 | 10 to 100 |  | 
37 | CNC(=O)c1c(-c2ccc(Oc3ccc(F)cc3)cc2)oc2cc3c(cc12)C1CC1CCN3S(C)(=O)=O (stereo not shown) [Compound B140] | 100 to 1000 |  |  | 
38 | CNC(=O)c1c(-c2ccc(Oc3ccc(F)cc3)cc2)oc2cc3c(cc12)C1(CCCN3S(C)(=O)=O)CC1 [Compound B141] | 100 to 1000 |  |  | 
39 | CNC(=O)c1c(-c2ccc(F)cc2)oc2cc3c(cc12)C(C)N(CC(=O)N(C)C)CCN3S(C)(=O)=O (stereo not shown) [Compound B150] | 10 to 100 | 10 to 100 |  | 
40 | CNC(=O)c1c(-c2ccc(Oc3ccc(F)cc3)cc2)oc2cc3c(cc12)C(C)N(C)CCN3S(C)(=O)=O (stereo not shown) [Compound B151] | 10 to 100 | 10 to 100 |  | 
41 | [2H]C([2H])([2H])NC(=O)c1c(-c2ccc(F)cc2)oc2cc3c(cc12)C(C)N(C)CCN3S(C)(=O)=O (stereo not shown) [Compound B152] | 100 to 1000 |  |  | 
42 | CNC(=O)c1c(-c2ccc(F)cc2)oc2cc3c(cc12)C(CF)OCCN3S(C)(=O)=O (stereo not shown) [Compound B153] | 10 to 100 | 10 to 100 |  | 
43 | CNC(=O)c1c(-c2ccc(F)cc2)oc2cc3c(cc12)C(C)N(CCCO)CCN3S(C)(=O)=O (stereo not shown) [Compound B154] | 10 to 100 | 10 to 100 |  | 
44 | CNC(=O)c1c(-c2ccc(F)cc2)oc2cc3c(cc12)C(C)N(CCc1ccc(F)cc1)CCN3S(C)(=O)=O (stereo not shown) [Compound B155] | 10 to 100 | 10 to 100 |  | 
45 | CNC(=O)c1c(-c2ccc(F)cc2)oc2cc3c(cc12)[C@H](C)O[C@@H](CCO)CN3S(C)(=O)=O [Compound B231] |  | 10 to 100 |  | 10 to 100
46 | CNC(=O)c1c(-c2ccc(F)cc2)oc2cc3c(cc12)[C@H](C)O[C@H](CCS(C)(=O)=O)CN3S(C)(=O)=O [Compound B233] |  | ≤ 10 |  | < 10
47 | CNC(=O)c1c(-c2ccc(F)cc2)oc2cc3c(cc12)[C@H](C)O[C@@H](CCS(C)(=O)=O)CN3S(C)(=O)=O [Compound B234] |  | 10 to 100 |  | 10 to 100
48 | CNC(=O)c1c(-c2ccc(Oc3ccc(F)cc3)cc2)oc2cc3c(cc12)C(C)OC(CCO)CN3S(C)(=O)=O (stereo not shown) [Compound B235] |  | 10 to 100 |  | 10 to 100
49 | CNC(=O)c1c(-c2ccc(Oc3ccc(F)cc3)cc2)oc2cc3c(cc12)C(C)OC(CCS(C)(=O)=O)CN3S(C)(=O)=O (stereo not shown) [Compound B236] |  | ≤ 10 |  | < 10
50 | CNC(=O)c1c(-c2ccc(Oc3ccc(F)cc3)cc2)oc2cc3c(cc12)[C@H](C)O[C@H](COC(=O)[C@@H](N)C(C)C)CN3S(C)(=O)=O [Compound B237] |  | ≤ 10 |  | < 10
51 | CNC(=O)c1c(-c2ccc(Oc3ccc(F)cc3)cc2)oc2cc3c(cc12)[C@H](C)O[C@H](COC(=O)[C@H](C)N)CN3S(C)(=O)=O [Compound B238] |  | ≤ 10 |  | < 10
52 | CNC(=O)c1c(-c2ccc(Oc3ccc(F)cc3)cc2)oc2cc3c(cc12)[C@H](C)O[C@H](COC(=O)CN(C)C)CN3S(C)(=O)=O [Compound B239] |  | ≤ 10 |  | < 10
53 | CNC(=O)c1c(-c2ccc(Oc3ccc(F)cc3)cc2)oc2cc3c(cc12)[C@H](C)O[C@H](COP(=O)(O)O)CN3S(C)(=O)=O [Compound B240] |  | ≤ 10 |  | < 10
54 | CNC(=O)c1c(-c2ccc(Oc3ccc(F)cc3)cc2)oc2cc3c(cc12)[C@H](C)O[C@@H](CO)CN3S(C)(=O)=O [Compound B241] |  | 10 to 100 |  | 10 to 100
55 | CNC(=O)c1c(-c2ccc(F)cc2)nn2cc3c(cc12)C(C)OC(CO)CN3S(C)(=O)=O (stereo not shown) [Compound B242] |  |  |  | 100 to 1000
